Assay [1] deals with genotype 1b-Con1 subgenomic replicon cell line. As to the kind of experiment: microbe, parasite or virus in culture. It is filed as cell-based, HCV. The note with it: Hepatitis C virus, read-out: EC50 1b.
Assay [2] has as its target T1, HCV polymerase 1B (Δ21 NS5B, BK) (Hepatitis C virus genotype 1b, UniProt P26663).
T1 construct: 20 to 50 nM Δ21 NS5B
As to the kind of experiment: biochemical. The method in brief:
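Δ21 NS5B (genotype 1b, BK […]) preincubated 15 min RT with inhibitor, 2 mM MnCl2, pH 7.4, 60–125 μM GTP; started with 20 μM CTP/ATP, 1 μM 3H-UTP, 5 nM template RNA, run 2–4 h RT. Spermine-precipitated RNA filter-captured, scintillation counted; IC50 from tight-binding (Morrison) fit.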

The subject of assay [3] is genotype 1a-H77 subgenomic replicon cell line. As to the kind of experiment: microbe, parasite or virus in culture. It is filed as cell-based, HCV. Particulars: Hepatitis C virus, read-out: EC50 1a.
Assay [4] concerns the target T2, HCV polymerase 1A (Δ21 NS5B, H77) (Hepatitis C virus genotype 1a, UniProt P27958).
T2 construct: 20 to 50 nM Δ21 NS5B
As to the kind of experiment: biochemical. Particulars: IC50 1a. Summed up:
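Radiometric assay with Δ21 NS5B (H77): 20 μM CTP, 20 μM ATP, 1 μM ^3H-UTP, 5 nM template RNA, 2–4 h at room temperature. RNA precipitated with spermine, filter-captured and counted. IC50 from non-linear fit of retained cpm vs inhibitor concentration (tight-binding equation).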

T1 sequence (P26663 2420-2989, stated change not applied): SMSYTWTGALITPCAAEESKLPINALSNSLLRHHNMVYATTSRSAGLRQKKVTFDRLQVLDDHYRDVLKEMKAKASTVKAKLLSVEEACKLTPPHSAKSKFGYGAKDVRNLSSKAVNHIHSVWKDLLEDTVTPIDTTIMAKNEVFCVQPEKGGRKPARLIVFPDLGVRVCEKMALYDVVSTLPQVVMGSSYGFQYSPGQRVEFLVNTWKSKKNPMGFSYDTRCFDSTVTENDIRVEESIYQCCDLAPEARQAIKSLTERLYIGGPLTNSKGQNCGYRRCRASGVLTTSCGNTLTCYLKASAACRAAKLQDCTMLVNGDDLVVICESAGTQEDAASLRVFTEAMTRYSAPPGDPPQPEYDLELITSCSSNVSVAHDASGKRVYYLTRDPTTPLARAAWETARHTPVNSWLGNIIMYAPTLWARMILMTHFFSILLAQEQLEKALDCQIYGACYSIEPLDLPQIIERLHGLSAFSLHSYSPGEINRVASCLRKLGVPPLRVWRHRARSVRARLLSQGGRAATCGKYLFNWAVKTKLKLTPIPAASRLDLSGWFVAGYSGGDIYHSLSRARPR
T2 sequence (P27958 2421-2990, stated change not applied): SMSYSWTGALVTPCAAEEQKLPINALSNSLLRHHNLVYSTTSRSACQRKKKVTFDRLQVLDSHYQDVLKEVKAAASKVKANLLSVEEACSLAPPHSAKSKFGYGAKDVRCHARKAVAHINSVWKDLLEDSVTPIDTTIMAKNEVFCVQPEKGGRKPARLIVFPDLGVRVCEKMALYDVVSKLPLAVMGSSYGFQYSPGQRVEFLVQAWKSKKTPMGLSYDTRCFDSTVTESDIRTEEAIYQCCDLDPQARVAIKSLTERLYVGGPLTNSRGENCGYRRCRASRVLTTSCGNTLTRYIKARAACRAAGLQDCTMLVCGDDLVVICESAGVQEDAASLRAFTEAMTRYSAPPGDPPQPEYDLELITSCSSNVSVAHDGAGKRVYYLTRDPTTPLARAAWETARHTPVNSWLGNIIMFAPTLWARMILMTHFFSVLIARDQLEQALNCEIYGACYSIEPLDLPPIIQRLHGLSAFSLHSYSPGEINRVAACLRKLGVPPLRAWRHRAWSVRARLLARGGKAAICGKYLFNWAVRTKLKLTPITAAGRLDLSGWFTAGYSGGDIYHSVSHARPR

As a reminder, the EC50 is the concentration at which the effect is half-maximal. As usually defined, the IC50 is the concentration needed to halve the response being measured. A lower IC50 goes with greater potency. On to `CC(C)CS(=O)(=O)Nc1ccc(NC(=O)c2cc(N3CCC(=O)NC3=O)cc(C(C)(C)C)c2O)cc1` [IA-L3-1.7, 3-tert-butyl-5-(2,4-dioxotetrahydropyrimidin-1(2H)-yl)-2-hydroxy-N-(4-(2-methylpropylsulfonamido)phenyl)benzamide], for which the EC50 in assay [1] and in assay [3] was over 1000 nM throughout. Moreover, the IC50 in assay [2] was 10 to 100 nM; in assay [4], 100 to 1000 nM.

As for `COCCS(=O)(=O)Nc1ccc(NC(=O)c2cc(N3CCC(=O)NC3=O)cc(C(C)(C)C)c2O)cc1` [IA-L3-1.8, 3-tert-butyl-5-(2,4-dioxotetrahydropyrimidin-1(2H)-yl)-2-hydroxy-N-(4-(2-methoxyethylsulfonamido)phenyl)benzamide], the results for the EC50 in assay [1] and in assay [3] were 100 to 1000 nM and over 1000 nM, respectively. Moreover, the IC50 in assay [2] and in assay [4] was 10 to 100 nM throughout.

In the case of `CC(C)(C)c1cc(N2CCC(=O)NC2=O)cc(C(=O)Nc2ccc(NS(=O)(=O)CC(F)(F)F)cc2)c1O` [IA-L3-1.9, 3-tert-butyl-5-(2,4-dioxotetrahydropyrimidin-1(2H)-yl)-2-hydroxy-N-(4-(2,2,2-trifluoroethylsulfonamido)phenyl)benzamide], the EC50 in assay [1] and in assay [3] was over 1000 nM throughout. The IC50 is 10 to 100 nM in assay [2] and 100 to 1000 nM in assay [4].

On to `CC(C)(C)c1cc(N2CCC(=O)NC2=O)cc(C(=O)Nc2ccc(NS(=O)(=O)c3ccccc3)cc2)c1O` [IA-L3-1.10, 3-tert-butyl-5-(2,4-dioxotetrahydropyrimidin-1(2H)-yl)-2-hydroxy-N-(4-(phenylsulfon-amido)phenyl)benzamide], for which the EC50 in assay [1] and in assay [3] was 100 to 1000 nM throughout. Moreover, the IC50 in assay [2] and in assay [4] was 10 to 100 nM in each case.

As to `CC(C)(C)c1cc(N2CCC(=O)NC2=O)cc(C(=O)Nc2cccc(CNS(C)(=O)=O)c2)c1O` [IA-L3-1.11, 3-tert-butyl-5-(2,4-dioxotetrahydropyrimidin-1(2H)-yl)-2-hydroxy-N-(3-(methylsulfon-amidomethyl)phenyl)benzamide], the EC50 in assay [1] and in assay [3] was over 1000 nM throughout. For the same compound, the concentration for half-maximal inhibition (IC50) was 100 to 1000 nM in assay [2] and over 1000 nM in assay [4].

For the compound `CC(C)(C)c1cc(N2CCC(=O)NC2=O)cc(C(=O)Nc2ccc(NS(=O)(=O)Cc3ccccc3)cc2)c1O` [IA-L3-1.12, 3-tert-butyl-5-(2,4-dioxotetrahydropyrimidin-1(2H)-yl)-2-hydroxy-N-(4-(phenylmethyl-sulfonamido)phenyl)benzamide], the EC50 in assay [1] and in assay [3] was over 1000 nM each time. For the same compound, the IC50 is 10 to 100 nM in assay [2] and 100 to 1000 nM in assay [4].

Consider `Cc1noc(C)c1S(=O)(=O)Nc1ccc(NC(=O)c2cc(N3CCC(=O)NC3=O)cc(C(C)(C)C)c2O)cc1` [IA-L3-1.13, 3-tert-butyl-N-(4-(3,5-dimethylisoxazole-4-sulfonamido)phenyl)-5-(2,4-dioxotetrahydro-pyrimidin-1(2H)-yl)-2-hydroxybenzamide], for which the EC50 in assay [1] and in assay [3] was over 1000 nM each time. In addition, the IC50 is under 10 nM in assay [2] and 100 to 1000 nM in assay [4].

As for `CC(C)(C)c1cc(N2CCC(=O)NC2=O)cc(C(=O)Nc2ccc(CC(=O)O)cc2)c1O` [IA-L3-1.15, 2-(4-(3-tert-butyl-5-(2,4-dioxotetrahydropyrimidin-1(2H)-yl)-2-hydroxybenzamido)phenyl)-acetic acid], the EC50 in assay [1] and in assay [3] was over 1000 nM each time. In addition, the IC50 in assay [2] was 100 to 1000 nM; in assay [4], over 1000 nM.

With `CNS(=O)(=O)Cc1ccc(NC(=O)c2cc(N3CCC(=O)NC3=O)cc(C(C)(C)C)c2O)cc1` [IA-L3-1.16, 3-tert-butyl-5-(2,4-dioxotetrahydropyrimidin-1(2H)-yl)-2-hydroxy-N-(4-(N-methylsulfamoylmethyl)phenyl)benzamide], the EC50 in assay [1] and in assay [3] was over 1000 nM throughout. Besides, the values for the IC50 in assay [2] and in assay [4] were 10 to 100 nM and over 1000 nM, respectively.

On to `CC(C)(C)c1cc(N2CCC(=O)NC2=O)cc(C(=O)Nc2ccc(OS(C)(=O)=O)cc2)c1O` [IA-L3-1.19, 4-(3-tert-butyl-5-(2,4-dioxotetrahydropyrimidin-1(2H)-yl)-2-hydroxybenzamido)phenyl methanesulfonate], for which the EC50 in assay [1] and in assay [3] was over 1000 nM each time. The IC50 in assay [2] fell in the range of 10 to 100 nM; in assay [4], 100 to 1000 nM.

Regarding `CC(C)(C)c1cc(N2CCC(=O)NC2=O)cc(C(=O)Nc2ccccc2S(C)(=O)=O)c1O` [IA-L3-1.20, 3-tert-butyl-5-(2,4-dioxotetrahydropyrimidin-1(2H)-yl)-2-hydroxy-N-(2-(methylsulfonyl)phenyl)benzamide], the EC50 in assay [1] and in assay [3] was over 1000 nM each time. Further, the values for the IC50 in assay [2] and in assay [4] were 10 to 100 nM and over 1000 nM, respectively.

Consider `CC(C)(C)c1cc(N2CCC(=O)NC2=O)cc(C(=O)Nc2ccc(S(C)(=O)=O)cc2)c1O` [IA-L3-1.21, 3-tert-butyl-5-(2,4-dioxotetrahydropyrimidin-1(2H)-yl)-2-hydroxy-N-(4-(methylsulfonyl)phenyl)benzamide], for which the EC50 in assay [1] and in assay [3] was over 1000 nM throughout. In addition, the figures for the IC50 in assay [2] and in assay [4] were 100 to 1000 nM and over 1000 nM, respectively.

In the case of `CC(C)(C)c1cc(N2CCC(=O)NC2=O)cc(C(=O)Nc2ccccc2S(N)(=O)=O)c1O` [IA-L3-1.22, 3-tert-butyl-5-(2,4-dioxotetrahydropyrimidin-1(2H)-yl)-2-hydroxy-N-(2-sulfamoylphenyl)benzamide], the EC50 in assay [1] and in assay [3] was over 1000 nM each time. In addition, the IC50 fell in the range of 10 to 100 nM in assay [2] and 100 to 1000 nM in assay [4].

Take `COc1c(C(=O)Nc2ccccc2)cc(N2CCC(=O)NC2=O)cc1C(C)(C)C` [IA-L3-1.24, 3-tert-butyl-5-(2,4-dioxotetrahydropyrimidin-1(2H)-yl)-2-methoxy-N-phenylbenzamide]: the EC50 in assay [1] and in assay [3] was over 1000 nM throughout. In addition, the IC50 in assay [2] and in assay [4] was 100 to 1000 nM each time.

Turning to `COc1c(C(=O)N(C)c2ccc(NS(C)(=O)=O)cc2)cc(N2CCC(=O)NC2=O)cc1C(C)(C)C` [IA-L3-1.27, 3-tert-butyl-5-(2,4-dioxotetrahydropyrimidin-1(2H)-yl)-2-methoxy-N-methyl-N-(4-(methylsulfonamido)phenyl)benzamide], the EC50 in assay [1] and in assay [3] was over 1000 nM in each case. For the same compound, the IC50 in assay [2] and in assay [4] was 100 to 1000 nM throughout.

With `COc1c(C(=O)Nc2ccc(CC(=O)O)cc2)cc(N2CCC(=O)NC2=O)cc1C(C)(C)C` [IA-L3-1.30, 2-(4-(3-tert-butyl-5-(2,4-dioxotetrahydropyrimidin-1(2H)-yl)-2-methoxybenzamido)phenyl)-acetic acid], the EC50 in assay [1] and in assay [3] was over 1000 nM throughout. Further, the IC50 in assay [2] was 100 to 1000 nM; in assay [4], over 1000 nM.

With `CNS(=O)(=O)Cc1ccc(NC(=O)c2cc(N3CCC(=O)NC3=O)cc(C(C)(C)C)c2OC)cc1` [IA-L3-1.31, 3-tert-butyl-5-(2,4-dioxotetrahydropyrimidin-1(2H)-yl)-2-methoxy-N-(4-(N-methylsulfamoylmethyl)phenyl)benzamide], the EC50 in assay [1] and in assay [3] was over 1000 nM each time. In addition, the concentration for half-maximal inhibition (IC50) in assay [2] and in assay [4] was over 1000 nM each time.

On to `COc1c(C(=O)Nc2ccc(O)cc2)cc(N2CCC(=O)NC2=O)cc1C(C)(C)C` [IA-L3-1.33, 3-tert-butyl-5-(2,4-dioxotetrahydropyrimidin-1(2H)-yl)-N-(4-hydroxyphenyl)-2-methoxybenzamide], for which the EC50 in assay [1] and in assay [3] was over 1000 nM throughout. In addition, the IC50 is 100 to 1000 nM in assay [2] and over 1000 nM in assay [4].

Turning to `COc1c(C(=O)Nc2ccc(OCC#N)cc2)cc(N2CCC(=O)NC2=O)cc1C(C)(C)C` [IA-L3-1.38, 3-tert-butyl-N-(4-(cyanomethoxy)phenyl)-5-(2,4-dioxotetrahydropyrimidin-1(2H)-yl)-2-methoxybenzamide], the EC50 in assay [1] and in assay [3] was over 1000 nM in each case. Besides, the IC50 in assay [2] is 100 to 1000 nM; in assay [4] it was over 1000 nM.

For the compound `COc1c(C(=O)Nc2ccc(OCC(N)=O)cc2)cc(N2CCC(=O)NC2=O)cc1C(C)(C)C` [IA-L3-1.39, N-(4-(2-amino-2-oxoethoxy)phenyl)-3-tert-butyl-5-(2,4-dioxotetrahydropyrimidin-1(2H)-yl)-2-methoxybenzamide], the EC50 in assay [1] and in assay [3] was over 1000 nM in each case. The IC50 in assay [2] was 100 to 1000 nM; in assay [4], over 1000 nM.

On to `COc1c(C(=O)Nc2ccc(OS(C)(=O)=O)cc2)cc(N2CCC(=O)NC2=O)cc1C(C)(C)C` [IA-L3-1.41, 4-(3-tert-butyl-5-(2,4-dioxotetrahydropyrimidin-1(2H)-yl)-2-methoxybenzamido)phenyl methanesulfonate], for which the EC50 in assay [1] was 100 to 1000 nM; in assay [3], over 1000 nM. Besides, the IC50 in assay [2] was over 1000 nM; in assay [4], 100 to 1000 nM.

In the case of `COc1c(C(=O)Nc2ccc(NS(C)(=O)=O)cc2)cc(N2CCC(=O)NC2=O)cc1C(C)(C)C` [IA-L3-1.51], the values for the EC50 in assay [1] and in assay [3] were 10 to 100 nM and 100 to 1000 nM, respectively. Also, the IC50 in assay [2] and in assay [4] was 10 to 100 nM each time.
